# Measurements published in patent US10189774B2 (priority 2006, dated 2019).
# “And” between values parts separate entries of the source, which are not always exact repeats. Equal values may be shown once. Read-outs that look alike come from different tables or passages of the source.
# Key:
# [1] = pH 7.4
# [2] = test system: human myeloma cell line derived from the ascites of a patient with multiple myeloma; conditions: mouse, in vivo
# [3] = test system: Human Gastric Cancer HGC-27 cell; test: cells; type: cell-based; conditions: for EC50: Homo sapiens, HGC-27, 72 h, read-out: EC50, HGC-27 cell growth inhibition; for HGC-27 cell growth inhibition rate: 72 hours
# physchem = conditions: water
compound,measurement,setting,value
CS(=O)(=O)CCN(CCS(C)(=O)=O)c1ccc(CCCC(=O)O)cc1 [4-[bis(2-methylsulfonylethyl)amino]benzenebutanoic acid],In vitro penetration rate (apparent flux) of parent compounds,[1]; human,0.01 mg/cm^2/h
CCN(CC)CCOC(=O)CCCc1ccc(N(CCS(C)(=O)=O)CCS(C)(=O)=O)cc1.Cl [diethylaminoethyl 4-[bis(2-methylsulfonylethyl)amino]benzenebutyrate.HCl],Life Elongation Rate,[2],269% and 244%
same,None Disease Rate,[2],4/7 and 3/7
same,Survival Period,[2],122.5 ± 1.7 days and 111.2 ± 1.9 days
O=C(O)CCCc1ccc(N(CCCl)CCCl)cc1 [chlorambucil],EC50,[3],> 100 µM
same,HGC-27 cell growth inhibition rate,[3]; final concentration 2 μm,0.3%
same,HGC-27 cell growth inhibition rate,[3]; final concentration 5 μm,1.6%
same,HGC-27 cell growth inhibition rate,[3]; final concentration 25 μm,25.0%
same,HGC-27 cell growth inhibition rate,[3]; final concentration 50 μm,34.9%
same,HGC-27 cell growth inhibition rate,[3]; final concentration 75 μm,34.2%
same,HGC-27 cell growth inhibition rate,[3]; final concentration 100 μm,39.2%
same,HGC-27 cell growth inhibition rate,[3]; final concentration 200 μm,47.7%
same,HGC-27 cell growth inhibition rate,[3]; final concentration 500 μm,81.0%
same,In vitro penetration rate (apparent flux) of parent compounds,[1]; human,0.01 mg/cm^2/h
same,Life Elongation Rate,[2],127% and 198%
same,None Disease Rate,[2],2/7 and 3/7
same,Survival Period,[2],57.8 ± 1.5 days and 90.2 ± 1.9 days
"Br.CCN(CC)CCOC(=O)[C@H](Cc1ccc(N(CCCl)CCCl)cc1)NC(C)=O [4-[bis(2-chloroethyl)amino]-N-acetyl-L-phenylalanine N,N-diethylaminoethyl ester hydrobromide]",In vitro penetration rate (apparent flux) of HPPs,[1]; human,1.10 mg/cm^2/h
same,Life Elongation Rate,[2]; hydrobromide,287% and 266%
same,None Disease Rate,[2]; hydrobromide,4/7 and 3/7
same,Survival Period,[2]; hydrobromide,130.5 ± 1.6 days and 121.2 ± 1.8 days
same,solubility,physchem,300 mg/mL
"Br.CCN(CC)CCOC(=O)CCCc1ccc(N(CCCl)CCCl)cc1 [N,N-diethylaminoethyl 4-[bis(2-chloroethyl)amino]benzenebutyrate.HBr]",In vitro penetration rate (apparent flux) of HPPs,[1],1.01 mg/cm^2/h
same,Life Elongation Rate,[2],282% and 253%
same,None Disease Rate,[2],4/7
same,Survival Period,[2],128.5 ± 1.3 days and 115.2 ± 2.1 days
N[C@@H](Cc1ccc(N(CCCl)CCCl)cc1)C(=O)O [melphalan],In vitro penetration rate (apparent flux) of parent compounds,[1]; human,0.01 mg/cm^2/h
same,Life Elongation Rate,[2],195% and 122%
same,Survival Period,[2],88.5 ± 1.8 days and 55.7 ± 1.3 days
Br.CCN(CC)CCOC(=O)CCCc1ccc(N(CCS(C)(=O)=O)CCS(C)(=O)=O)cc1 [diethylaminoethyl 4-[bis(2-methylsulfonylethyl)amino]benzenebutyrate•HBr],In vitro penetration rate (apparent flux) of HPPs,[1],0.94 mg/cm^2/h
"CCN(CC)CCOC(=O)CCCc1ccc(N(CCCl)CCCl)cc1 [N,N-diethylaminoethyl 4-[bis(2-chloroethyl)amino]benzenebutyrate]",EC50,[3],< 6 µM
same,HGC-27 cell growth inhibition rate,[3]; final concentration 0.5 μm,25.5%
same,HGC-27 cell growth inhibition rate,[3]; final concentration 2 μm,34.7%
same,HGC-27 cell growth inhibition rate,[3]; final concentration 5 μm,46.9%
same,HGC-27 cell growth inhibition rate,[3]; final concentration 25 μm,54.6%
same,HGC-27 cell growth inhibition rate,[3]; final concentration 50 μm,81.6%
same,HGC-27 cell growth inhibition rate,[3]; final concentration 75 μm,93.4%
same,HGC-27 cell growth inhibition rate,[3]; final concentration 100 μm,94.7%
same,HGC-27 cell growth inhibition rate,[3]; final concentration 200 μm,94.8%
same,HGC-27 cell growth inhibition rate,[3]; final concentration 500 μm,94.8%
"CC(=O)O[C@H]1C(=O)[C@@]2(C)[C@H]([C@H](OC(=O)c3ccccc3)[C@]3(O)C[C@H](OC(=O)[C@H](O)[C@@H](NC(=O)c4ccccc4)c4ccccc4)C(C)=C1C3(C)C)[C@]1(OC(C)=O)CO[C@@H]1C[C@@H]2O [taxol, Taxol]",EC50,[3],~0.013 µM
same,HGC-27 cell growth inhibition rate,[3]; final concentration 0.5 nM,10.3%
same,HGC-27 cell growth inhibition rate,[3]; final concentration 1 nm,21.6%
same,HGC-27 cell growth inhibition rate,[3]; final concentration 10 nm,45.0%
same,HGC-27 cell growth inhibition rate,[3]; final concentration 25 nm,76.9%
same,HGC-27 cell growth inhibition rate,[3]; final concentration 50 nm,85.2%
same,HGC-27 cell growth inhibition rate,[3]; final concentration 100 nm,92.2%
same,HGC-27 cell growth inhibition rate,[3]; final concentration 500 nm,94.7%
same,HGC-27 cell growth inhibition rate,[3]; final concentration 5000 nm,95.8%
